“Also recorded” adds a separate entry of the source.
Tests used:
[1] = target: T1, PD-L1/PD-1 interaction (Homo sapiens, UniProt Q9NZQ7); experiment: PD-1Fc binding to PD-L1 on NCI-H157 cells (flow cytometry and confocal); format: cell-based; conditions: 24 h of ME-2 treatment, human recombinant PD-1Fc, dose-dependent
T1 construct: NCI-H157 cells were inoculated on a 24-well cell culture plate; endogenous in cells; host or cells: NCI-H157
Experimental: NCI-H157 cells were inoculated on a 24-well cell culture plate and subjected to gradient dosing treatment for time needed after cell adhesion. The cells were fixed at room temperature with a 4% solution of paraformaldehyde. The cells were washed with PBS buffer several times. An appropriate amount of human recombinant PD-1Fc protein was added to the fixed cells and incubated for 1 h, and the cells were washed with PBS buffer several times. Anti-human IgG (Alexa Fluor 488) fluorescent secondary antibody was added and incubated for 30 min. After nuclear staining, a glycerol sealing layer was applied. Green fluorescence signals were observed under a fluorescence microscope and photographed for statistics, or the fluorescence intensity was measured by flow cytometry.

[2] = tested on: PD-L1; experiment: Flow cytometry of PD-L1 expression in NCI-H157 cells; format: cell-based; conditions: flow cytometry, 1, 2 and 5 mg/mL
Experimental: (§1) NCI-H157 or LLC cells in a 6-well plate were treated with low, medium, and high doses of ME-2 at 1, 2, and 5 mg/mL, respectively, for corresponding time, and the cells were stained with a fluorescent antibody. Fluorescence intensity was measured by flow cytometry.

[3] = target: PD-L1 protein (Homo sapiens, UniProt Q9NZQ7); experiment: SPR affinity analysis with PD-L1 protein (Biacore 8K, CM5 chip); format: binding
Sequence of PD-L1 protein (Q9NZQ7 19-290, species assumed): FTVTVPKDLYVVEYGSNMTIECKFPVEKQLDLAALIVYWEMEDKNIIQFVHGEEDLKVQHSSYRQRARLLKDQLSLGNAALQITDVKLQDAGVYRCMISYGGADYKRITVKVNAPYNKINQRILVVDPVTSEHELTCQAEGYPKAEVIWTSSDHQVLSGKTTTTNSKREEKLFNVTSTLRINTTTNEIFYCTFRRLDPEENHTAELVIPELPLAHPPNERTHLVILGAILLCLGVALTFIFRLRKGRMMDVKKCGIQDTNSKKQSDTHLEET
Experimental: Biacore 8K high-throughput molecular interaction analysis system, CM5 chip, and phosphate buffered saline (PBS) buffer as the mobile phase of the instrument were used in the whole process of the surface plasmon resonance experiment. The PD-L1 was coupled to the activated CM5 chip using an amino coupling kit. […] After 60 s of dissociation, the chip was regenerated with 10 mM glycine-HCl (pH2.0) and 3 M NaCl at a flow rate of 30 L/min for 30 s. Biacore Evaluation 3.1 software and GraphPad Prism 8.0 software were used to analyze the data and obtain the response curve.

[4] = tested on: NCI-H157 cells; experiment: Co-culture of H157 tumor cells with stimulated Jurkat T cells, crystal violet staining; format: cell-based; conditions: gradient dosing, co-culture 24 h
Experimental: In order to further evaluate the anti-tumor effect of ME-2 in the experiment of co-culture of tumor cells and T cells, H157 cells were inoculated into a 24-well culture plate, subjected to gradient dosing treatment for time needed, and co-cultured with stimulated Jurkat T cells for 24 h. The tumor survival was observed under a microscope after 4% polyformaldehyde fixation and crystal violet staining. The specific manifestation was the difference in the depth of staining in the different dosages and concentrations of ME-2.

[5] = tested on: PD-L1; experiment: Western blot of PD-L1 expression in mouse lung cancer LLC cells; format: cell-based; conditions: concentration and time gradient, most significant at 2 mg/mL, 24 h
Experimental: (§2) The tumor cells in question were non-small cell lung cancer NCI-H157, mouse lung cancer LLC, colon cancer SW620, human osteosarcoma U2OS, non-small cell lung cancer A549, liver cancer HepG-2, and breast cancer MCF-7. The total protein of the above cells was extracted; the protein concentration was determined by bicinchoninic acid (BCA) assay. The samples were loaded and subjected to sodium dodecyl sulfate (SDS) polyacrylamide gel electrophoresis (SDS-PAGE); the membrane was blocked and immunoreacted after transfer, and an enhanced chemiluminescence (ECL) solution was used for development. Picture processing and gray value analysis were performed on the exposure results on ImageJ software. According to the experimental results, the cell lines with high expression of PD-L1 were selected as follows: NCI-H157, LLC, U2OS, and SW620; and the cell lines with low or no expression of PD-L1 were A549, HepG-2, and MCF-7 (see FIGS. 3A and 3B).
Concentration and time gradient ME-2 were applied to act on four tumor cell lines with high expression of PD-L1, respectively. The Western blot method was used for detection, and the experimental method was shown above. […] The downregulation of tumor cell baseline PD-L1 was concentration dependent (see FIG. 5A) and time dependent (see FIG. 5B). […]

[6] = tested on: LLC cells; experiment: CCK8 in vitro cytotoxicity assay, LLC; format: cell-based, mouse; conditions: CCK8, gradient concentration, 24 h
Experimental: (§3) CCK8 was used to detect the cytotoxicity of ME-2 to NCI-H157 and LLC cells. H157 or LLC cells were inoculated overnight in 96-well cell culture plate at a concentration of 1×10^4/mL. The gradient concentration of ME-2 was prepared in the medium, and CCK8 solution was added into the 96-well cell culture plate after 24 h of action. OD values were measured at 450 nm by an enzyme-linked immunosorbent assay (ELISA) instrument.

[7] = tested on: PD-L1; experiment: Western blot of IFN-γ-induced PD-L1 expression (A549, HepG-2, MCF-7); format: cell-based; conditions: ME-2 and IFN-γ co-acted on cells
Experimental: as §2
Interferon IFN-γ is an important factor in inducing PD-L1 expression in the tumor immune microenvironment. We used low-expression PD-L1 tumor cells (non-small cell lung cancer A549, liver cancer HepG-2, and breast cancer MCF-7). ME-2 and IFN-γ were co-acted on cells; their expression abundance was detected by the Western blot method, and the experimental method was shown above.

[8] = tested on: NCI-H157 cells; experiment: CCK8 in vitro cytotoxicity assay, NCI-H157; format: cell-based; conditions: CCK8, gradient concentration, 24 h
Experimental: as §3

[9] = tested on: LLC lung cancer transplanted tumor; experiment: Mouse lung cancer (LLC) transplanted tumor model
[10] = tested on: PD-L1; experiment: Western blot of PD-L1 expression in tumor cells with high expression of PD-L1 (NCI-H157, U2OS, SW620); format: cell-based, human; conditions: concentration and time gradient, most significant at 2 mg/mL, 24 h
Experimental: as §2
Concentration and time gradient ME-2 were applied to act on four tumor cell lines with high expression of PD-L1, respectively. The Western blot method was used for detection, and the experimental method was shown above. […] The downregulation of tumor cell baseline PD-L1 was concentration dependent (see FIG. 5A) and time dependent (see FIG. 5B). The downregulation of PD-L1 was most significant when the dose concentration was 2 mg/mL and the administration time was 24 h.
A Western blot was used to detect the effects of Auricularia auricula total polysaccharide METP and Auricularia auricula deacetylated monomeric polysaccharide dME-2 on the expression of PD-L1 in H157 cells, and Auricularia auricula monomeric polysaccharide ME-2 was used as a positive control. The experimental procedure was described in Example 1.

[11] = target: PD-1 protein (Homo sapiens, UniProt Q15116); experiment: SPR affinity analysis with PD-1 protein; format: binding
Sequence of PD-1 protein (Q15116 25-288): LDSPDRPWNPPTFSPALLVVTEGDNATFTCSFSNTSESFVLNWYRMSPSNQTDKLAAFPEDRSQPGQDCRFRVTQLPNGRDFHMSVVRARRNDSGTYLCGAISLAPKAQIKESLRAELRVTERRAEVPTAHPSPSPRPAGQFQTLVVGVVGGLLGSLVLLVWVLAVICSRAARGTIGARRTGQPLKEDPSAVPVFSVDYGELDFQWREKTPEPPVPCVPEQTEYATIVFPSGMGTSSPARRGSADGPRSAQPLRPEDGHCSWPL

[12] = tested on: PD-L1; experiment: Flow cytometry of PD-L1 expression in LLC cells; format: cell-based, mouse; conditions: flow cytometry, 1, 2 and 5 mg/mL
Experimental: as §1

[13] = target: PD-L1 and PD-1 protein (Homo sapiens, UniProt Q9NZQ7); experiment: SPR competitive experiment between ME-2 and PD-1 for PD-L1; format: binding
Sequence of PD-L1 and PD-1 protein (Q9NZQ7 19-238 limits assumed, species assumed): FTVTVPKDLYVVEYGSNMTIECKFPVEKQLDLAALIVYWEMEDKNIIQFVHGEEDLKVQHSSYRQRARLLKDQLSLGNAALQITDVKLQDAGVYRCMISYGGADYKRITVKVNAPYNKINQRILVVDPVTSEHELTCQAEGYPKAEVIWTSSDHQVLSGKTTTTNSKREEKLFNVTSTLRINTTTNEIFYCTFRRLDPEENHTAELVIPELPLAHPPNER
Excerpt: Biacore 8K high-throughput molecular interaction analysis system, CM5 chip, and phosphate buffered saline (PBS) buffer as the mobile phase of the instrument were used in the whole process of the surface plasmon resonance experiment. The PD-L1 was coupled to the activated CM5 chip using an amino coupling kit. […] The ME-2 polysaccharide solution with different concentrations was passed through the coupling channel and the blank channel at a certain velocity by using the running buffer. After 60 s of dissociation, the chip was regenerated with 10 mM glycine-HCl (pH2.0) and 3 M NaCl at a flow rate of […] for 30 s. Biacore Evaluation 3.1 software and GraphPad Prism 8.0 software were used to analyze the data and obtain the response curve.

T1 sequence (Q9NZQ7 19-290): as the sequence (Q9NZQ7 19-290, species assumed) above

## high-acetyl glucuronoxylogalactoglucomannan [ME-2]
[1]
  PD-1 binding to PD-L1 in NCI-H157 cells: decreased
[2]
  PD-L1 fluorescence intensity in NCI-H157 cells: concentration dependent inhibition
[3]
  affinity to PD-L1 protein (in words): strong affinity
[4]
  sensitivity of NCI-H157 cells to killing by Jurkat T cells: more sensitive to the killing of Jurkat T cells
[5]
  abundance of PD-L1 in LLC cells: significantly down-regulated
[6]
  cytotoxicity / proliferation of LLC cells: no obvious cytotoxicity
[7]
  IFN-γ-induced expression of PD-L1 in A549 cells: significantly down-regulated
  IFN-γ-induced expression of PD-L1 in HepG-2 cells: significantly down-regulated
  IFN-γ-induced expression of PD-L1 in MCF-7 cells: significantly down-regulated
[8]
  cytotoxicity / proliferation of NCI-H157 cells: no obvious cytotoxicity
[9]; ME-2 100 mg/kg
  HE staining of vital organs of mice: did not cause organic changes
  serum indexes of mice: consistent with those of the control group
[9]; ME-2 100 mg/kg, oral administration, 100 mg/kg
  tumor growth in model mice: obvious better than a positive drug; also recorded: effectively inhibited
[9]; ME-2 at the dosage used (100 mg/kg)
  toxic and side effects on mice: no obvious toxic and side effects
[9]; ME-2 experiment, all groups
  body weight of mice: no significant difference
[9]; qPCR, ME-2 treated mice
  PD-L1 mRNA level in mouse tumors: significantly reduce
[10]
  abundance of PD-L1 in NCI-H157 cells: significantly down-regulated
  abundance of PD-L1 in SW620 cells: significantly down-regulated
  abundance of PD-L1 in U2OS cells: significantly down-regulated
[11]
  affinity to PD-1 protein (in words): no affinity
[12]
  PD-L1 fluorescence intensity in LLC cells: concentration dependent inhibition
[13]
  binding of PD-L1 and PD-1 protein with increasing concentration of ME-2: significantly inhibited
